Tests used:
HiBit-BRG1 = biological target: T1, HiBit-BRG1 (Homo sapiens, UniProt P51532); test: HiBit-BRG1 cell-based degradation assay (Nano-Glo HiBiT Lytic Detection); settings: HeLa cells expressing HiBit-BRG1 and LgBit, 24 h; for DC50: read-out: BRG1 HiBit Degradation IC50; for Dmax: read-out: BRG1 HiBit Degradation Maximum (%)
T1 construct: expressed in transfected cells
In short: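 HeLa cells stably expressing HiBit-BRG1 plus LgBit; compound exposure 24 h; Nano-Glo HiBiT lytic luminescence; % degradation vs DMSO (0%) and 2 μM standard BRM/BRG1 degrader (100%).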

HiBiT-BRM = biological target: T2, HiBiT-BRM (Homo sapiens, UniProt P51531); test: HiBiT-BRM cell-based degradation assay (Nano-Glo HiBiT Lytic Detection); settings: HeLa cells expressing HiBiT-BRM, 24 h; for DC50: read-out: BRM HiBit Degradation IC50
T2 construct: expressed in transfected cells
In short: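 Luminescence from HiBiT–LgBiT complementation in lysates of a stable HiBiT-BRM HeLa line measured after 24 h compound exposure. Degradation expressed as percent relative to DMSO-treated cells and cells given 2 μM of a known BRM/BRG1 degrader.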

T2 sequence (P51531 whole entry): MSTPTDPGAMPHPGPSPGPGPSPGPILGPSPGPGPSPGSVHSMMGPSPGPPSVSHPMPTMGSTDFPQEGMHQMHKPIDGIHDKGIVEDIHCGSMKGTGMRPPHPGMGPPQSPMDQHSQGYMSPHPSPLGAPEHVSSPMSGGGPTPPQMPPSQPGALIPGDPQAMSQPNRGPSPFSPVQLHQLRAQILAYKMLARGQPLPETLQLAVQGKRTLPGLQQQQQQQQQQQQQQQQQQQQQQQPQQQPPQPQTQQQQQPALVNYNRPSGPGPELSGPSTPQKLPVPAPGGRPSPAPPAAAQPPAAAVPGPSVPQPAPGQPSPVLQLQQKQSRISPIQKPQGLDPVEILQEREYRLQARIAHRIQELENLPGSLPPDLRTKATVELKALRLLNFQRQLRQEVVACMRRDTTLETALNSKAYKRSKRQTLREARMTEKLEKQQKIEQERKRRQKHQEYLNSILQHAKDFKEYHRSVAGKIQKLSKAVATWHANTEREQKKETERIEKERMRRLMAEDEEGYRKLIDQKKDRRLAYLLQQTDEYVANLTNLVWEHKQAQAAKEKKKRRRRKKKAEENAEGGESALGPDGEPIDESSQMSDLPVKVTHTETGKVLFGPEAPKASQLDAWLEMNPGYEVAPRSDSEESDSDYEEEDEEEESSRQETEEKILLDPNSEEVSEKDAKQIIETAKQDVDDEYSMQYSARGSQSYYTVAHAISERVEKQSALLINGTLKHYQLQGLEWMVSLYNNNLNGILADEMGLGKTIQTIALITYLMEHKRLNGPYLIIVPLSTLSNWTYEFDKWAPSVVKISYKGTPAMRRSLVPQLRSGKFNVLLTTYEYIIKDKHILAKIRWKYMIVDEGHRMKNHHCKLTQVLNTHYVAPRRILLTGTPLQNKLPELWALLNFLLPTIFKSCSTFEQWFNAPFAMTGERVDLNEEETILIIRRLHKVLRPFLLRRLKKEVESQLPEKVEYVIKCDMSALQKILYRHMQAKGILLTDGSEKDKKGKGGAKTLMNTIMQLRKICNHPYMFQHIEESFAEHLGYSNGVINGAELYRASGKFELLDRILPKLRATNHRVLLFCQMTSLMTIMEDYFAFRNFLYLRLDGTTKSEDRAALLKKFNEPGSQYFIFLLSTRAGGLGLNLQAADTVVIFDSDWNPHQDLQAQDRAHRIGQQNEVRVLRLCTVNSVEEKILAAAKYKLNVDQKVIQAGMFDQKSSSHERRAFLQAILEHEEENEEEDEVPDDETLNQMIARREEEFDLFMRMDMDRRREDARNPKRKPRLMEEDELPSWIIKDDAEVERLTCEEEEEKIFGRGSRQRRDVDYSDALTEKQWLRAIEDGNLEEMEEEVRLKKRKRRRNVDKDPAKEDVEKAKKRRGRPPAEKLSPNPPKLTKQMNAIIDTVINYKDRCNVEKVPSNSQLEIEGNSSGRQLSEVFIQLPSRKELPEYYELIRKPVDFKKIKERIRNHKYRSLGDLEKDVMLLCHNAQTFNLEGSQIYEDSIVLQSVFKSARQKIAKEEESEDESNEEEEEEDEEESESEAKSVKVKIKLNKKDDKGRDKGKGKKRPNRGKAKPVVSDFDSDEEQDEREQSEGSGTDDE
T1 sequence (P51532 whole entry): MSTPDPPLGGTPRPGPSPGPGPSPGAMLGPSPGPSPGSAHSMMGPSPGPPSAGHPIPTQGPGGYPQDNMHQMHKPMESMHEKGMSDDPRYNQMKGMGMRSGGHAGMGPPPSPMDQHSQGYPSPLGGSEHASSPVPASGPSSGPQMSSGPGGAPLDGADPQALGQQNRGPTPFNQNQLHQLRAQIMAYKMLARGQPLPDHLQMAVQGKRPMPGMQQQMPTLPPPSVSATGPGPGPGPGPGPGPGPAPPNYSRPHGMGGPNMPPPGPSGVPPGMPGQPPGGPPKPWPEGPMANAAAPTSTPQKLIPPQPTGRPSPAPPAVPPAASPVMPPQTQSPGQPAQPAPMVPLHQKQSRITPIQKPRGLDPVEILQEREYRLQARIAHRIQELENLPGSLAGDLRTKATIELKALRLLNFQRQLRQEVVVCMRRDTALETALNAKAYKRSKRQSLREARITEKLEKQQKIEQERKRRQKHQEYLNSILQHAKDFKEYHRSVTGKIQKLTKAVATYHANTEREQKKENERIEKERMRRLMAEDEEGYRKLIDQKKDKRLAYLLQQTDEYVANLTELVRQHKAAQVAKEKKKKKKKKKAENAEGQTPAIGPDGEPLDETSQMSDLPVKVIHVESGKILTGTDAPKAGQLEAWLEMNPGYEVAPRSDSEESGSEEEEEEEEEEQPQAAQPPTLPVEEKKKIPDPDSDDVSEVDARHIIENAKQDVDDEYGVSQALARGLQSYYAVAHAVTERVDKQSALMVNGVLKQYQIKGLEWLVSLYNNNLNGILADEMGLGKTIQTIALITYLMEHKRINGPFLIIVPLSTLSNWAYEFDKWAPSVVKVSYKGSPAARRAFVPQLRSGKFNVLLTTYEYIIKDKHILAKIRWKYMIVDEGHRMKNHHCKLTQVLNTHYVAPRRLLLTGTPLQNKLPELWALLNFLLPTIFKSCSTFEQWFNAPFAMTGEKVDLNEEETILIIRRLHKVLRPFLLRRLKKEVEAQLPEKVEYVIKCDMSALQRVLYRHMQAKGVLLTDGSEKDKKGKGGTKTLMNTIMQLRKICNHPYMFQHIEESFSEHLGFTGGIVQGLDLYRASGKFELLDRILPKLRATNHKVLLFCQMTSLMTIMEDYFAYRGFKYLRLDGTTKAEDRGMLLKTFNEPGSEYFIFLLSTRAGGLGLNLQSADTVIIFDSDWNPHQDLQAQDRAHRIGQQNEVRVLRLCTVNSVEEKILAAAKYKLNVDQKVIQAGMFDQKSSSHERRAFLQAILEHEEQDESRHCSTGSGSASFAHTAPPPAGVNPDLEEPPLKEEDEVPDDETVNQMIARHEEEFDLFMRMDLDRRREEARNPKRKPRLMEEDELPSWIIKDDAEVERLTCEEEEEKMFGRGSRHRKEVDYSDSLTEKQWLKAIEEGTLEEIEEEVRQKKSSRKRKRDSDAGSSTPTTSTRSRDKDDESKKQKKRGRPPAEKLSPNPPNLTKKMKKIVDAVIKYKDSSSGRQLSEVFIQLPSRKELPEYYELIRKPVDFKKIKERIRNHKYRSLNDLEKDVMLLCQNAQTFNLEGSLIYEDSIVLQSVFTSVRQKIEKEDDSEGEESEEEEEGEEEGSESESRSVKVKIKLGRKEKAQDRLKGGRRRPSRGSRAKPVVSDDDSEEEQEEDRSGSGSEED

SMILES	DC50 (HiBit-BRG1) [nM]	Dmax (HiBit-BRG1) [%]	DC50 (HiBiT-BRM) [nM]	BRM HiBit Degradation Maximum (%) (HiBiT-BRM)
Cc1ncsc1-c1ccc(CNC(=O)[C@@H]2C[C@@H](O)CN2C(=O)[C@@H](NC(=O)CCN2CC3CN(C(=O)c4ccc(CCOc5cc(-c6ccccc6O)nnc5N)cc4)CC32)C(C)(C)C)cc1 (stereo partly drawn) [Compound 231, (2S,4R)-1-((2S)-2-(3-(3-(4-(2-((3-amino-6-(2-hydroxyphenyl)pyridazin-4-yl)oxy)ethyl)benzoyl)-3,6-diazabicyclo[3.2.0]heptan-6-yl)propanamido)-3,3-dimethylbutanoyl)-4-hydroxy-N-(4-(4-methylthiazol-5-yl)benzyl)pyrrolidine-2-carboxamide]	> 1000	< 50	> 1000	C (“C” indicates maximum degradation <50%)
Cc1ncsc1-c1ccc(CNC(=O)[C@@H]2C[C@@H](O)CN2C(=O)[C@@H](NC(=O)CCN2CCN(CCOc3cc(N4[C@@H]5CC[C@H]4CN(c4cc(-c6ccccc6O)nnc4N)C5)ccn3)CC2)C(C)(C)C)cc1 [Compound 232, (2S,4R)-1-((2S)-2-(3-(4-(2-((4-(3-(3-amino-6-(2-hydroxyphenyl)pyridazin-4-yl)-3,8-diazabicyclo[3.2.1]octan-8-yl)pyridin-2-yl)oxy)ethyl)piperazin-1-yl)propanamido)-3,3-dimethylbutanoyl)-4-hydroxy-N-(4-(4-methylthiazol-5-yl)benzyl)pyrrolidine-2-carboxamide]	> 1000	< 50	> 100	A (“A” indicates maximum degradation ≥75%)
Cc1ncsc1-c1ccc(CNC(=O)[C@@H]2C[C@@H](O)CN2C(=O)[C@@H](NC(=O)CN2CCN(CCOc3cc(N4[C@@H]5CC[C@H]4CN(c4cc(-c6ccccc6O)nnc4N)C5)ccn3)CC2)C(C)(C)C)cc1 [Compound 233, (2S,4R)-1-((2S)-2-(2-(4-(2-((4-(3-(3-amino-6-(2-hydroxyphenyl)pyridazin-4-yl)-3,8-diazabicyclo[3.2.1]octan-8-yl)pyridin-2-yl)oxy)ethyl)piperazin-1-yl)acetamido)-3,3-dimethylbutanoyl)-4-hydroxy-N-(4-(4-methylthiazol-5-yl)benzyl)pyrrolidine-2-carboxamide]	> 100	> 75	> 10	A (“A” indicates maximum degradation ≥75%)
Cc1ncsc1-c1ccc(CNC(=O)[C@@H]2C[C@@H](O)CN2C(=O)[C@@H](NC(=O)CCCCN2CCN(CCOc3cc(N4[C@@H]5CC[C@H]4CN(c4cc(-c6ccccc6O)nnc4N)C5)ccn3)CC2)C(C)(C)C)cc1 [Compound 234, (2S,4R)-1-((2S)-2-(5-(4-(2-((4-(3-(3-amino-6-(2-hydroxyphenyl)pyridazin-4-yl)-3,8-diazabicyclo[3.2.1]octan-8-yl)pyridin-2-yl)oxy)ethyl)piperazin-1-yl)pentanamido)-3,3-dimethylbutanoyl)-4-hydroxy-N-(4-(4-methylthiazol-5-yl)benzyl)pyrrolidine-2-carboxamide]	> 1000	< 50	> 100	A (“A” indicates maximum degradation ≥75%)
Cc1ncsc1-c1ccc(CNC(=O)[C@@H]2C[C@@H](O)CN2C(=O)[C@@H](NC(=O)CCN2C[C@H]3CN(CCC(=O)NCc4ccc(CCOc5cc(-c6ccccc6O)nnc5N)cc4)C[C@H]3C2)C(C)(C)C)cc1 [Compound 235, (2S,4R)-1-((2S)-2-(3-(5-(3-((4-(2-((3-amino-6-(2-hydroxyphenyl)pyridazin-4-yl)oxy)ethyl)benzyl)amino)-3-oxopropyl)hexahydropyrrolo[3,4-c]pyrrol-2(1H)-yl)propanamido)-3,3-dimethylbutanoyl)-4-hydroxy-N-(4-(4-methylthiazol-5-yl)benzyl)pyrrolidine-2-carboxamide]	> 1000	< 50	> 1000	C (“C” indicates maximum degradation <50%)

Further lines, with some results ahead:

DC50 (HiBit-BRG1) [nM]	Dmax (HiBit-BRG1) [%]	DC50 (HiBiT-BRM) [nM]	SMILES	BRM HiBit Degradation Maximum (%) (HiBiT-BRM)
> 1000	< 50	> 1000	Cc1ncsc1-c1ccc([C@H](C)NC(=O)[C@@H]2C[C@@H](O)CN2C(=O)[C@@H](c2cc(OCCNCCCCCCC(=O)NCc3ccc(CCOc4cc(-c5ccccc5O)nnc4N)cc3)no2)C(C)C)cc1 [Compound 229, (2S,4R)-1-((R)-2-(3-(2-((7-((4-(2-((3-amino-6-(2-hydroxyphenyl)pyridazin-4-yl)oxy)ethyl)benzyl)amino)-7-oxoheptyl)amino)ethoxy)isoxazol-5-yl)-3-methylbutanoyl)-4-hydroxy-N-((S)-1-(4-(4-methylthiazol-5-yl)phenyl)ethyl)pyrrolidine-2-carboxamide]	B (“B” indicates maximum degradation ≥50%)
> 1000	> 75	> 100	Cc1ncsc1-c1ccc([C@H](C)NC(=O)[C@@H]2C[C@@H](O)CN2C(=O)[C@@H](c2cc(OCCNCCC(=O)NCc3ccc(CCOc4cc(-c5ccccc5O)nnc4N)cc3)no2)C(C)C)cc1 [Compound 230, (2S,4R)-1-((R)-2-(3-(2-((3-((4-(2-((3-amino-6-(2-hydroxyphenyl)pyridazin-4-yl)oxy)ethyl)benzyl)amino)-3-oxopropyl)amino)ethoxy)isoxazol-5-yl)-3-methylbutanoyl)-4-hydroxy-N-((S)-1-(4-(4-methylthiazol-5-yl)phenyl)ethyl)pyrrolidine-2-carboxamide]	A (“A” indicates maximum degradation ≥75%)
> 1000	< 50	> 1000	Cc1ncsc1-c1ccc(CNC(=O)[C@@H]2C[C@@H](O)CN2C(=O)[C@@H](NC(=O)CCN2CCC(OC3CCN(CCC(=O)NCc4ccc(CCOc5cc(-c6ccccc6O)nnc5N)cc4)CC3)CC2)C(C)(C)C)cc1 [Compound 236, (2S,4R)-1-((S)-2-(3-(4-((1-(3-((4-(2-((3-amino-6-(2-hydroxyphenyl)pyridazin-4-yl)oxy)ethyl)benzyl)amino)-3-oxopropyl)piperidin-4-yl)oxy)piperidin-1-yl)propanamido)-3,3-dimethylbutanoyl)-4-hydroxy-N-(4-(4-methylthiazol-5-yl)benzyl)pyrrolidine-2-carboxamide]	B (“B” indicates maximum degradation ≥50%)
> 100	> 50	> 10	Cc1ncsc1-c1ccc([C@H](C)NC(=O)[C@@H]2C[C@@H](O)CN2C(=O)[C@@H](c2cc(OCCN3CC(OC4CCN(C(=O)c5ccc(CCOc6cc(-c7ccccc7O)nnc6N)cc5)CC4)C3)no2)C(C)C)cc1 [Compound 237, (2S,4R)-1-((R)-2-(3-(2-(3-((1-(4-(2-((3-amino-6-(2-hydroxyphenyl)pyridazin-4-yl)oxy)ethyl)benzoyl)piperidin-4-yl)oxy)azetidin-1-yl)ethoxy)isoxazol-5-yl)-3-methylbutanoyl)-4-hydroxy-N-((S)-1-(4-(4-methylthiazol-5-yl)phenyl)ethyl)pyrrolidine-2-carboxamide]	A (“A” indicates maximum degradation ≥75%)
